Reference: paper PMC9154192 (PLoS Biology, 2022)

What was measured:
M. tuberculosis H37Rv = assay: microbe, parasite or virus in culture; type: cell-based, Mycobacterium tuberculosis; conditions: for MIC: Mycobacterium tuberculosis, H37RV, read-out: MIC
[1] = test system: clinically isolated MDR, XDR, and TDR M. tuberculosis strains; assay: microbe, parasite or virus in culture; type: cell-based; conditions: Mycobacterium tuberculosis
M. abscessus = assay: microbe, parasite or virus in culture; type: cell-based, Mycobacterium abscessus; conditions: Mycobacteroides abscessus
M. arupense = assay: microbe, parasite or virus in culture; type: cell-based, Mycobacterium arupense; conditions: Mycolicibacter arupensis
M. avium = assay: microbe, parasite or virus in culture; type: cell-based; conditions: Mycobacterium avium
M. bolletii = assay: microbe, parasite or virus in culture; type: cell-based, Mycobacterium bolletii; conditions: Mycobacteroides abscessus
M. chitae = assay: microbe, parasite or virus in culture; type: cell-based, Mycobacterium chitae; conditions: Mycolicibacterium chitae
M. colombiense = assay: microbe, parasite or virus in culture; type: cell-based; conditions: Mycobacterium colombiense
M. fortuitum = assay: microbe, parasite or virus in culture; type: cell-based, Mycobacterium fortuitum; conditions: Mycolicibacterium fortuitum
M. gilvum = assay: microbe, parasite or virus in culture; type: cell-based, Mycobacterium gilvum; conditions: Mycolicibacterium gilvum
M. goodie = assay: microbe, parasite or virus in culture; type: cell-based; conditions: Mycobacterium
M. gordonae = assay: microbe, parasite or virus in culture; type: cell-based; conditions: Mycobacterium gordonae
M. heraklionease = assay: microbe, parasite or virus in culture; type: cell-based; conditions: Mycobacterium
M. kansasii = assay: microbe, parasite or virus in culture; type: cell-based; conditions: Mycobacterium kansasii
M. kyorinense = assay: microbe, parasite or virus in culture; type: cell-based; conditions: Mycobacterium kyorinense
M. marinum = assay: microbe, parasite or virus in culture; type: cell-based; conditions: Mycobacterium marinum
M. marseiliense = assay: microbe, parasite or virus in culture; type: cell-based; conditions: Mycobacterium
M. massiliense = assay: microbe, parasite or virus in culture; type: cell-based, Mycobacterium massiliense; conditions: Mycobacteroides abscessus
M. neoaurum = assay: microbe, parasite or virus in culture; type: cell-based, Mycobacterium neoaurum; conditions: Mycolicibacterium neoaurum
M. peregrinum = assay: microbe, parasite or virus in culture; type: cell-based, Mycobacterium peregrinum; conditions: Mycolicibacterium peregrinum
M. phlei = assay: microbe, parasite or virus in culture; type: cell-based, Mycobacterium phlei; conditions: Mycolicibacterium phlei
M. smegmatis = assay: microbe, parasite or virus in culture; type: cell-based, Mycobacterium smegmatis; conditions: Mycolicibacterium smegmatis
M. szulgai = assay: microbe, parasite or virus in culture; type: cell-based; conditions: Mycobacterium szulgai
M. xenopi = assay: microbe, parasite or virus in culture; type: cell-based; conditions: Mycobacterium xenopi
Acinetobacter baumannii = assay: Broth dilution MIC (CLSI); type: cell-based; conditions: read-out: MIC
Excerpt: (§1) Bacteria (Acinetobacter baumannii NCCP 14782, Citrobacter freundii NCCP 14766, Enterobacter aerogenes NCCP 14761, Escherichia coli NCCP 14762, Escherichia coli O157 NCCP 14541, Klebsiella pneumoniae NCCP 14764, Proteus mirabilis NCCP 14763, Proteus vulgaris NCCP 14765, Pseudomonas aeruginosa NCCP 14781, Salmonella Enteritidis NCCP 14771, Salmonella Paratyphi A NCCP 14759, Salmonella Typhimurium NCCP 16207, Serratia marcescens NCCP 14770, Shigella boydii NCCP 14745, Shigella dysenteriae NCCP 14746, Shigella flexneri NCCP 14744, Shigella sonnei NCCP 14773, Bacillus subtilis NCCP 11101, Corynebacterium diphtheriae NCCP 10353, Staphylococcus aureus MSSA NCCP 14780, Staphylococcus aureus MRSA NCCP 14769, Staphylococcus epidermidis NCCP 14768, Streptococcus pneumoniae NCCP 14774) and fungi (Aspergillus fumigatus NCCP 22454, Candida albicans NCCP 32557, Cryptococcus neoformans NCCP 32559, Microsporum canis NCCP 22454, Rhizopus oryzae NCCP 22458, Saccharomyces cerevisiae NCCP 32558, Trichophyton rubrum NCCP 22456) strains were obtained from the National Culture Collection for Pathogens (NCCP) (Chungbuk, Korea). The MIC of each agent was determined following the Clinical and Laboratory Standards Institute (CLSI).[40]

Aspergillus fumigatus = assay: Broth dilution MIC (CLSI); type: cell-based; conditions: read-out: MIC
Excerpt: as §1

Bacillus subtilis = assay: Broth dilution MIC (CLSI); type: cell-based; conditions: read-out: MIC
Excerpt: as §1

Citrobacter freundii = assay: Broth dilution MIC (CLSI); type: cell-based; conditions: read-out: MIC
Excerpt: as §1

Enterobacter aerogenes = assay: Broth dilution MIC (CLSI); type: cell-based; conditions: Klebsiella aerogenes; Enterobacter aerogenes; read-out: MIC
Excerpt: as §1

Escherichia coli O157 = assay: Broth dilution MIC (CLSI); type: cell-based; conditions: read-out: MIC
Excerpt: as §1

Escherichia coli = assay: Broth dilution MIC (CLSI); type: cell-based; conditions: read-out: MIC
Excerpt: as §1

Klebsiella pneumoniae = assay: Broth dilution MIC (CLSI); type: cell-based; conditions: read-out: MIC
Excerpt: as §1

Microsporum canis = assay: Broth dilution MIC (CLSI); type: cell-based; conditions: read-out: MIC
Excerpt: as §1

Proteus vulgaris = assay: Broth dilution MIC (CLSI); type: cell-based; conditions: read-out: MIC
Excerpt: as §1

Rhizopus oryzae = assay: Broth dilution MIC (CLSI); type: cell-based; conditions: Rhizopus arrhizus; Rhizopus oryzae; read-out: MIC
Excerpt: as §1

Saccharomyces cerevisiae = assay: Broth dilution MIC (CLSI); type: cell-based; conditions: read-out: MIC
Excerpt: as §1

Salmonella Enteritidis = assay: Broth dilution MIC (CLSI); type: cell-based; conditions: Salmonella enterica; Salmonella Enteritidis; read-out: MIC
Excerpt: as §1

Salmonella Paratyphi A = assay: Broth dilution MIC (CLSI); type: cell-based; conditions: Salmonella enterica; Salmonella Paratyphi A; read-out: MIC
Excerpt: as §1

Shigella dysenteriae = assay: Broth dilution MIC (CLSI); type: cell-based; conditions: read-out: MIC
Excerpt: as §1

Shigella sonnei = assay: Broth dilution MIC (CLSI); type: cell-based; conditions: read-out: MIC
Excerpt: as §1

[2] = test system: Staphylococcus aureus, MSSA; assay: Broth dilution MIC (CLSI); type: cell-based; conditions: read-out: MIC
Excerpt: as §1

Streptococcus pneumoniae = assay: Broth dilution MIC (CLSI); type: cell-based; conditions: read-out: MIC
Excerpt: as §1

[H]/N=C(/N)N[C@H]1[C@H](O)[C@@H](O)[C@H](O[C@@H]2O[C@@H](C)[C@](O)(C=O)[C@H]2O[C@@H]2O[C@@H](CO)[C@H](O)[C@@H](O)[C@@H]2NC)[C@@H](N/C(N)=N\[H])[C@@H]1O [STR, streptomycin]
0.8 µg/mL: MIC (M. colombiense) | MIC (M. kyorinense) | MIC (M. massiliense) | MIC (M. neoaurum) | MIC (Bacillus subtilis)
1.6 µg/mL: MIC (Citrobacter freundii)
3.1 µg/mL: MIC (M. avium) | MIC (M. peregrinum) | MIC (Enterobacter aerogenes) | MIC (Klebsiella pneumoniae) | MIC (Salmonella Enteritidis) | MIC (Shigella sonnei)
0.2 µg/mL: MIC (M. gilvum) | MIC (M. goodie) | MIC (M. kansasii) | MIC (M. phlei) | MIC (M. smegmatis) | MIC (M. szulgai) | MIC (M. xenopi)
0.1 µg/mL: MIC (M. arupense)
50 µg/mL: MIC ([1]; TDR-1) | MIC ([1]; TDR-3) | MIC (M. heraklionease)
< 0.1 µg/mL: MIC (M. marinum)
12.5 µg/mL: MIC (Streptococcus pneumoniae)
> 100 µg/mL: MIC ([1]; TDR-2) | MIC (M. chitae) | MIC (Aspergillus fumigatus) | MIC (Microsporum canis) | MIC (Rhizopus oryzae) | MIC (Saccharomyces cerevisiae)
0.4 µg/mL: MIC (M. tuberculosis H37Rv)
100 µg/mL: MIC (M. gordonae)
6.3 µg/mL: MIC (M. fortuitum) | MIC (Acinetobacter baumannii) | MIC (Escherichia coli O157) | MIC (Salmonella Paratyphi A) | MIC [2]
25 µg/mL: MIC (M. abscessus) | MIC (M. bolletii) | MIC (M. marseiliense) | MIC (Escherichia coli) | MIC (Proteus vulgaris) | MIC (Shigella dysenteriae)

COC(=O)[C@@H]1CCC(=O)N1Cc1cc2ccc(OCc3ccccc3)cc2c2cc(OC)c(OC)cc12 [PP3S, Methyl (S)-1-{[3-(Benzyloxy)-6,7-dimethoxy-9-phenanthryl]methyl}-5-oxopyrrolidine-2-carboxylate]
had in vitro antitubercular activities: in vitro antitubercular activities (S-form vs R-form) (M. tuberculosis H37Rv)
1.6 µg/mL: MIC (M. tuberculosis H37Rv) | MIC ([1]; TDR-2)
0.8 µg/mL: MIC ([1]; TDR-1) | MIC ([1]; TDR-3)
> 100 µg/mL: MIC (M. abscessus) | MIC (M. arupense) | MIC (M. avium) | MIC (M. bolletii) | MIC (M. chitae) | MIC (M. colombiense) | MIC (M. fortuitum) | MIC (M. gilvum) | MIC (M. goodie) | MIC (M. gordonae) | MIC (M. heraklionease) | MIC (M. kansasii) | MIC (M. kyorinense) | MIC (M. marinum) | MIC (M. marseiliense) | MIC (M. massiliense) | MIC (M. neoaurum) | MIC (M. peregrinum) | MIC (M. phlei) | MIC (M. smegmatis) | MIC (M. szulgai) | MIC (M. xenopi) | MIC (Acinetobacter baumannii) | MIC (Aspergillus fumigatus) | MIC (Bacillus subtilis) | MIC (Citrobacter freundii) | MIC (Enterobacter aerogenes) | MIC (Escherichia coli O157) | MIC (Escherichia coli) | MIC (Klebsiella pneumoniae) | MIC (Microsporum canis) | MIC (Proteus vulgaris) | MIC (Rhizopus oryzae) | MIC (Saccharomyces cerevisiae) | MIC (Salmonella Enteritidis) | MIC (Salmonella Paratyphi A) | MIC (Shigella dysenteriae) | MIC (Shigella sonnei) | MIC [2] | MIC (Streptococcus pneumoniae)

COC(=O)[C@@H]1CCC(=O)N1Cc1cc2ccc(OC)cc2c2cc(OC)c(OC)cc12 [PP1S, (S)-N-[(2,3,6-Trimethoxy-10-phenanthryl)methyl]-pyroglutamic acid methyl ester]
3.3 µg/mL: MIC ([1]; TDR-1)
>62.5: SI (CC50/MIC) (M. tuberculosis H37Rv; ratio of CC50 for L929 fibroblasts to MIC for strain H37Rv)
> 100 µg/mL: MIC (M. abscessus) | MIC (M. arupense) | MIC (M. avium) | MIC (M. bolletii) | MIC (M. chitae) | MIC (M. colombiense) | MIC (M. fortuitum) | MIC (M. gilvum) | MIC (M. goodie) | MIC (M. gordonae) | MIC (M. heraklionease) | MIC (M. kansasii) | MIC (M. kyorinense) | MIC (M. marinum) | MIC (M. marseiliense) | MIC (M. massiliense) | MIC (M. neoaurum) | MIC (M. peregrinum) | MIC (M. phlei) | MIC (M. smegmatis) | MIC (M. szulgai) | MIC (M. xenopi) | MIC (Acinetobacter baumannii) | MIC (Aspergillus fumigatus) | MIC (Bacillus subtilis) | MIC (Citrobacter freundii) | MIC (Enterobacter aerogenes) | MIC (Escherichia coli O157) | MIC (Escherichia coli) | MIC (Klebsiella pneumoniae) | MIC (Microsporum canis) | MIC (Proteus vulgaris) | MIC (Rhizopus oryzae) | MIC (Saccharomyces cerevisiae) | MIC (Salmonella Enteritidis) | MIC (Salmonella Paratyphi A) | MIC (Shigella dysenteriae) | MIC (Shigella sonnei) | MIC [2] | MIC (Streptococcus pneumoniae)
3.1 µg/mL: MIC ([1]; TDR-3)
0.8 µg/mL: MIC ([1]; TDR-2)
1.6 µg/mL: MIC (M. tuberculosis H37Rv)
had in vitro antitubercular activities: in vitro antitubercular activities (S-form vs R-form) (M. tuberculosis H37Rv)
